This note sets out measurements from ChEMBL document CHEMBL1201862, “PubChem BioAssay data set” (2004).

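96-well plates; 48 h exposure; 5 concentrations. Endpoints by linear interpolation between flanking doses. Not reached: highest tested concentration assigned. GI50: concentration for 50% inhibition of growth.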 The source made the active and inactive calls. No stated cut-off is given here; in the data, active = GI50 up to about 1.1 µM and inactive = higher.

What all share (experiment): NCI tumour cell line growth inhibition, 48 h
Assay [1] concerns K562.
Assay [2] has as its system MDA-MB-435.
Assay [3] concerns SK-MEL-5.
For assay [4], the system named is RXF 393.
For assay [5], the system named is SNB-75.
Assay [6] concerns U-251.
The test system of assay [7] is SK-MEL-28.
Assay [8] deals with RPMI-8226.
For assay [9], the system named is HOP-62.
Assay [10] deals with UO-31.
Assay [11] deals with NCI/ADR-RES.
In assay [12] the test system is SR.
The subject of assay [13] is SF-295.
In assay [14] the test system is IGROV-1.
Assay [15] deals with OVCAR-4.
Assay [16] concerns Hs-578T.
The test system of assay [17] is ACHN.
The test system of assay [18] is A498.
Assay [19] relates to EKVX.
The test system of assay [20] is MOLT-4.

As to `CCCn1cnc2c(SCC(=O)O)nc(N)nc21`, the GI50 in assay [1], in assay [2], in assay [3], in assay [4], in assay [5] and in assay [6] was > 100 µM (inactive) each time. Moreover, the GI50 in assay [7], in [8], in assay [9], in assay [10], in assay [11] and in [12] was > 100 µM (inactive) in each case. Besides, the GI50 in [13], in assay [14], in assay [15], in [16], in assay [17] and in assay [18] was > 100 µM (inactive) throughout. Also, the GI50 in assay [19] was > 100 µM (inactive).

Take `COc1cc(C=C2C(C)=NN(c3cccc(Cl)c3)C23C(Cl)C(=O)N3c2nc3ccccc3s2)ccc1O` (stereo not drawn): the GI50 in assay [1] was 3.61 µM (inactive); in [2], 12.4 µM (inactive); in [3] it was 17.2 µM (inactive); in assay [4], 13.5 µM (inactive); in assay [6], 15 µM (inactive); in assay [7], 23.3 µM (inactive). Further, the GI50 in assay [8] is 7.26 µM (inactive); in [9], 20.4 µM (inactive); in [10], 20.7 µM (inactive); in [11], 38.8 µM (inactive); in assay [20], 0.461 µM (active); in [12], 0.111 µM (active). The GI50 is 37.1 µM (inactive) in [13]; 15.8 µM (inactive) in [14]; 28.5 µM (inactive) in [15]; 7.36 µM (inactive) in assay [16]; 19.2 µM (inactive) in [17]; 17.9 µM (inactive) in assay [18]. Further, the GI50 in [19] is 31.4 µM (inactive).

For the compound `CN=C(n1ccnc1)n1ccnc1`, the GI50 in assay [1], in [2], in [3], in assay [4], in assay [5] and in assay [6] was > 100 µM (inactive) in each case. Besides, the GI50 in assay [7], in [8], in [10], in [11], in [20] and in assay [12] was > 100 µM (inactive) in each case. Further, the GI50 in [14], in [15], in assay [16], in assay [18] and in assay [19] was > 100 µM (inactive) throughout.

Consider `COC(=O)c1c(O)ccc2c1C1(Cc3ccccc3C1=O)C(O)O2` (stereo not drawn), for which the GI50 was 12.8 µM (inactive) in assay [1]; 13.4 µM (inactive) in assay [2]; 34.3 µM (inactive) in assay [3]; 51.5 µM (inactive) in assay [4]; 20.5 µM (inactive) in [6]; 36.9 µM (inactive) in assay [7]. The GI50 in assay [8] was 2.88 µM (inactive); in assay [9] it was 13.8 µM (inactive); in [10], 10.1 µM (inactive); in assay [11] it was 27.8 µM (inactive); in assay [20], 5.04 µM (inactive); in assay [12] it was 4.49 µM (inactive). For the same compound, the GI50 was 42.3 µM (inactive) in assay [13]; 1.94 µM (inactive) in assay [14]; 16.2 µM (inactive) in assay [15]; 23.3 µM (inactive) in assay [16]; 14.9 µM (inactive) in assay [17]; > 100 µM (inactive) in assay [18]. The GI50 in assay [19] was 23.1 µM (inactive).

On to `c1csc(-c2cc(-c3cccs3)c(-c3cccs3)s2)c1`, for which the GI50 in assay [1] was 79.1 µM (inactive); in [2] it was 37.8 µM (inactive); in [3], 33.2 µM (inactive); in assay [4], 61.5 µM (inactive); in assay [5], 21.2 µM (inactive); in assay [6], 75.5 µM (inactive). The GI50 is 57.4 µM (inactive) in [7]; > 100 µM (inactive) in [9]; > 100 µM (inactive) in [10]; > 100 µM (inactive) in assay [11]; 36.1 µM (inactive) in [20]; 51.1 µM (inactive) in assay [12]. The GI50 in [13], in assay [14], in [15], in [16], in assay [17] and in assay [18] was > 100 µM (inactive) each time. Also, the GI50 in assay [19] is 55.8 µM (inactive).

In the case of `CN1CCN(c2nc3c(c(=O)n(C)c(=O)n3C)n2C)CC1`, the GI50 in assay [1], in assay [2], in assay [3], in assay [4], in assay [5] and in assay [6] was > 100 µM (inactive) each time. Also, the GI50 in assay [7], in assay [8], in assay [9], in assay [10], in assay [11] and in assay [12] was > 100 µM (inactive) throughout. The GI50 in assay [13], in assay [14], in assay [15], in [16], in assay [17] and in assay [18] was > 100 µM (inactive) throughout. Also, the GI50 in [19] was > 100 µM (inactive).

Consider `Cn1cncc1CC1COC(=O)C1C(O)c1ccccc1` (stereo not drawn), for which the GI50 in [1], in assay [2], in [3], in [4], in assay [5] and in assay [6] was > 100 µM (inactive) each time. In addition, the GI50 in [7], in assay [8], in assay [9], in assay [11], in [20] and in [12] was > 100 µM (inactive) each time. The GI50 in [13], in assay [14], in [15], in assay [16], in assay [17] and in [18] was > 100 µM (inactive) in each case. Besides, in [19], the GI50 was > 100 µM (inactive).

`CNC(=O)[C@H](Cc1ccccc1)NC(=O)N(CCC#N)CCN(C(=O)N[C@@H](Cc1ccccc1)C(=O)OC)c1ccccc1`: the GI50 in assay [1] is > 100 µM (inactive); in assay [2], > 100 µM (inactive); in assay [3], > 100 µM (inactive); in assay [4], > 100 µM (inactive); in [5], 16.6 µM (inactive); in assay [6] it was > 100 µM (inactive). For the same compound, the GI50 in assay [7], in assay [8], in assay [9], in [10], in [11] and in [20] was > 100 µM (inactive) in each case. The GI50 in assay [12], in assay [13], in assay [15], in [16], in assay [17] and in [18] was > 100 µM (inactive) in each case. In addition, the GI50 in assay [19] was > 100 µM (inactive).

Turning to `Cc1nc2ccccc2c(-n2cccn2)c1CCn1cccn1`, the GI50 was 55 µM (inactive) in [1]; > 100 µM (inactive) in assay [2]; 46.6 µM (inactive) in assay [3]; > 100 µM (inactive) in assay [4]; > 100 µM (inactive) in [6]; > 100 µM (inactive) in assay [7]. For the same compound, the GI50 in assay [8] is > 100 µM (inactive); in assay [9], > 100 µM (inactive); in assay [10] it was 1.77 µM (inactive); in [11], > 100 µM (inactive); in assay [20], 39.4 µM (inactive); in [12], 71.4 µM (inactive). For the same compound, the GI50 in assay [13] is > 100 µM (inactive); in assay [14], 85.9 µM (inactive); in assay [15], 23.8 µM (inactive); in assay [16] it was > 100 µM (inactive); in [17], 80.7 µM (inactive); in assay [18] it was 46.3 µM (inactive). Further, the GI50 in [19] was > 100 µM (inactive).

In the case of `C[C@]1(CO)[C@H]2CC[C@@]34C=C[C@@](CO)(CC[C@H]3[C@]2(C)CC[C@H]1O)C4`, the GI50 in assay [2] was 77.6 µM (inactive); in assay [3], 12.9 µM (inactive); in assay [4] it was 36.9 µM (inactive); in assay [5], 17.9 µM (inactive); in assay [6], 63 µM (inactive); in [7], > 100 µM (inactive). Besides, the GI50 in assay [8] is 27 µM (inactive); in assay [9], 62.2 µM (inactive); in [10], 35.4 µM (inactive); in assay [11], 27.3 µM (inactive); in [20], 8.93 µM (inactive); in assay [12], 24.3 µM (inactive). Moreover, the GI50 is 57.9 µM (inactive) in assay [13]; 25.4 µM (inactive) in assay [14]; 13.3 µM (inactive) in assay [15]; 55.7 µM (inactive) in assay [16]; 31.9 µM (inactive) in [17]; > 100 µM (inactive) in [18]. Moreover, the GI50 in [19] is 29.4 µM (inactive).
